In paper PMC12603070, “A high-throughput screening approach to discover potential colorectal cancer chemotherapeutics: repurposing drugs to identify novel disruptors of 14-3-3 proteins” (Cell Death & Disease, 2025):

What was measured:
[1] = test system: HT-29 and Caco-2 CRC cells; experiment: Cell death in CRC cells, statements covering both HT-29 and Caco-2 (screen at 20 µM, dose-response); format: cell-based, human; settings: dose-response 2.5-20 µM in HT-29 and Caco-2
Method: Cells were plated at a density of 20,000 cells/well into 96-well plates (PerkinElmer; #6055302) and incubated overnight at 37 °C before the addition of the drugs. One hour prior to imaging, Hoechst 33342 (Invitrogen, #H3570) and propidium iodide (Invitrogen; #P3566) were added to the wells to achieve final concentrations of 50 ng/ml and 0.5 μg/ml, respectively. To measure apoptosis, AlexaFluor 488-conjugated Annexin V (ThermoFisher, Massachusetts, USA; #A13201) was also added at a dilution of 1:400 from the commercial stock. A high-content imaging system (PerkinElmer; Operetta CLS), was used to quantify cell death and apoptosis by calculating the number of propidium iodide-positive cells relative to Hoechst-positive cells, and the number of Annexin V-positive cells relative to Hoechst-positive cells, respectively. To assess caspase-dependent apoptosis, cells were pre-treated for 30 min with the caspase inhibitor Z-VAD-FMK (BD Biosciences, New Jersey, USA; #550377; 20 μM) or the negative control Z-FA-FMK (BD Biosciences; #550411; 20 μM) prior to the incubation of drugs.

[2] = target: T1, His-14-3-3ζ (Homo sapiens, UniProt P63104); experiment: Surface plasmon resonance (SPR) on immobilized His-14-3-3ζ; format: binding; settings: for kd: SPR dissociation rate; for BI ([Signal (RU)]): SPR fit parameter, per curve; for kon: pH 7.8, SPR association rate, read-out: ka
T1 construct: made in house; host or cells: Escherichia coli BL21 LOBSTR-RIL
T1 sequence (P63104 1-245): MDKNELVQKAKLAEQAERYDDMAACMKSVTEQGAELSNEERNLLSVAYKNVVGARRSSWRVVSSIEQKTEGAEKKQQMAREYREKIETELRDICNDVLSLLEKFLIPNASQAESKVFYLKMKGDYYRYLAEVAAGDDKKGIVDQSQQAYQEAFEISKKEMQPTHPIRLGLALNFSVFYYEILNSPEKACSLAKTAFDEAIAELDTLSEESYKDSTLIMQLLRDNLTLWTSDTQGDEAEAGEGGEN
Method: The published protocol of Higuchi & Ottmann as followed with modifications to express 14-3-3ζ [44]. Escherichia coli BL21 LOBSTR-RIL cells were transformed with a plasmid encoding His-14-3-3ζ. The transformed cells were grown in TB medium containing appropriate antibiotic at 37 °C with shaking at 200 rpm until the culture reached an optical density of 0.6–0.8 at 600 nm (OD600). Protein expression was induced by the addition of isopropyl β-D-1-thiogalactopyranoside to a final concentration of 0.4 mM. Subsequently, the temperature was decreased to 16 °C and the culture incubated for another 16 h. Cells were harvested by centrifugation at 7000 × g for 20 min at 21 °C. The supernatant was discarded, and the cell pellet containing 14-3-3ζ was mixed and resuspended in lysis buffer (50 mM Tris, pH 7.80), 500 mM NaCl, 5 mM imidazole, 5% glycerol, 1 mM PMSF & 1 mM Benzamidine. Cells were lysed by sonication on ice using a probe sonicator (20 cycles of 10 s on, 20 s off, amplitude 70%). The lysate was centrifuged at 30,000 × g for 30 min at 4 °C to remove cell debris. The supernatant was collected for further purification. The 14-3-3ζ was isolated from the lysate by affinity chromatography (Ni-NTA beads, Qiagen). For further purification, the eluant was subjected to size exclusion chromatography using a Superdex 75 gel filtration column (HiLoad 16/600, GE Healthcare), pre-equilibrated with SEC buffer (20 mM Tris, pH 7.5, 150 mM NaCl, 1 mM TCEP). The protein solution was concentrated by ultrafiltration, flash frozen, and stored at −80 °C.
The general protocol for evaluating 14-3-3ζ was adapted from Hartman et al. and modified for our instrument and sensors. The SPR experiments were performed using a Open surface plasmon resonance instrument (OpenSPR^TM, Nicoya, Kitchener-Waterloo, Canada), and high sensitivity-nitrilotriacetic acid (HS-NTA) sensors. The sensor chip surface was first activated with 40 mM of NiCl2 at a flow rate of 20 μL/min using 20 mM HEPES pH 7.8, 150 mM NaCl and 1% DMSO as the running buffer. All running buffers were filtered and degassed prior to use. 100 μg/mL His-14-3-3ζ protein in 20 mM HEPES pH 7.8, 150 mM NaCl and 1% DMSO was injected at 8 μL/min flow rate for 800 s contact time and immobilized until the instrument registered 2900–3500 RU (activation and protein immobalization spectrograms are provided as Supplementary Fig. 10). Drugs were dissolved in DMSO and were diluted with 20 mM HEPES pH 7.8, 150 mM NaCl (final DMSO concentration of 1% v/v) and were injected at a flow rate of 50 μL/min. Single-cycle kinetics were applied for KD evaluation and binding affinity using TraceDrawer v.1.8.1 (Ridgeview Instruments AB).

[3] = test system: NIH-3T3 cells; experiment: Hoechst/propidium iodide cell death assay in NIH-3T3; format: cell-based; settings: for cytotoxicity at 20 µM: Mus musculus, NIH3T3, 24 h, 24 h, read-out: Percentage of cell death % 24h NIH3t3
Description: A high-content imaging system (PerkinElmer; Operetta CLS), was used to quantify cell death and apoptosis by calculating the number of propidium iodide-positive cells relative to Hoechst-positive cells, and the number of Annexin V-positive cells relative to Hoechst-positive cells, respectively.

[4] = SPR fit, value repeated per curve
[5] = SPR, immobilized His-14-3-3ζ, single-cycle kinetics, 1% DMSO

| Structure (SMILES) | Lowest concentration that significantly induced cell death [1] [µM] | Bmax ([Signal (RU)]) ([2]; SPR curve at 0.0009 mM ligand) [RU] | Bmax ([Signal (RU)]) ([2]; SPR curve at 0.005 mM ligand) [RU] | Bmax ([Signal (RU)]) ([2]; SPR curve at 0.007 mM ligand) [RU] | Bmax ([Signal (RU)]) ([2]; SPR curve at 0.01 mM ligand) [RU] | kd ([2]; value repeated per curve) [s⁻¹] | BI ([Signal (RU)]) [2] [RU] | Kd [2, 4] [nM] | Kd [2, 5] [nM] | kon ([2]; value repeated per curve) [M⁻¹ s⁻¹] | cytotoxicity at 20 µM [3] [%] | Percentage of cell death % 48h, NIH3T3 [3] [%] | Bmax ([Signal (RU)]) ([2]; SPR curve at 0.02 mM ligand) [RU] | Bmax ([Signal (RU)]) ([2]; SPR curve at 0.003 mM ligand) [RU] | Kd ([2]; SPR, immobilized 14-3-3ζ) [nM] |
| --- | --- | --- | --- | --- | --- | --- | --- | --- | --- | --- | --- | --- | --- | --- | --- |
| OC1(c2ccc(Cl)c(C(F)(F)F)c2)CCN(CCCC(c2ccc(F)cc2)c2ccc(F)cc2)CC1 [Penfluridol] | 5 | 99.25 | 72.64 | 80.65 | 100.4 | 0.00974 | 0.1 | 1350 | 1350 | 7240 | 85.7 | 79.942 |  |  |  |
| CCCCCCCCc1ccc(CCC(N)(CO)CO)cc1 [Fingolimod (FTY720), Fingolimod] |  | 2.87 | 227.4 |  |  | 0.00856 | 0.1 | 10600 | 10600 | 807 | 89.8 | 86.4299 | 342.32 |  |  |
| CC(C)(C)c1ccc(C(O)CCCN2CCC(C(O)(c3ccccc3)c3ccccc3)CC2)cc1 (centres unmarked) [Terfenadine] | 5 | 166.72 | 144.99 | 177.73 | 179.00 | 0.0185 | 0.1 | 2960 | 2960 | 6260 | 85.2 | 73.0215 |  |  |  |
| O=C(NC1CCN(CCCCC2(C(=O)NCC(F)(F)F)c3ccccc3-c3ccccc32)CC1)c1ccccc1-c1ccc(C(F)(F)F)cc1 [Lomitapide] | 5 | 55.11 |  |  | 270.8 | 0.0109 | 0.1 | 858 | 890 | 12700 | 90.2 | 77.6841 | 311.25 | 159.43 | 900 |
